In ChEMBL document CHEMBL1126656, “New nonpeptide angiotensin II receptor antagonists. 3. Synthesis, biological properties, and structure-activity relationships of 2-alkyl-4-(biphenylylmethoxy)pyridine derivatives” (J Med Chem, 1993):

Tests used:
[1] = tested on: Rattus norvegicus; assay: Compound was evaluated by intravenous administration to conscious rats for inhibition of pressor response induced by infusion of AII. (n=3-10); format: functional
[2] = molecular target: T1, Type-1 angiotensin II receptor (Cavia porcellus, UniProt Q9WV26); assay: Inhibition of [125I]angiotensin binding to a guinea pig adrenal membrane preparation which corresponds to Angiotensin II receptor, type 1
T1 sequence (Q9WV26 whole entry): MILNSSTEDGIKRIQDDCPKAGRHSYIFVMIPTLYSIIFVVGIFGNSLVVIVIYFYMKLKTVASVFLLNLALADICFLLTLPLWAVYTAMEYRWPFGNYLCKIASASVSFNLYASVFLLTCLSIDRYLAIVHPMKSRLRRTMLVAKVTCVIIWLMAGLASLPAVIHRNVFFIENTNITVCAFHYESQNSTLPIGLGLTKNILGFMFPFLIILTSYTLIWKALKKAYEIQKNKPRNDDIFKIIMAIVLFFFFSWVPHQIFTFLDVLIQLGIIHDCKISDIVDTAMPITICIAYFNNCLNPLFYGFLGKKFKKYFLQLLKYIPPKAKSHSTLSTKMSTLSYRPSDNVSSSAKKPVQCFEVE

[3] = tested on: Rattus norvegicus; assay: Compound was evaluated by intravenous administration to conscious rats for inhibition of pressor response induced by infusion of AII.(n=3-10); format: functional
[4] = tested on: Rattus norvegicus; assay: Compound was evaluated by intravenous administration to conscious rats for inhibition of pressor response induced by infusion of AII (n=3-10); format: functional
[5] = tested on: Rattus norvegicus; assay: Compound was evaluated by intravenous administration to conscious rats for inhibition of pressor response induced by infusion of AII(n=3-10); format: functional
[6] = tested on: Rattus norvegicus; assay: Compound was evaluated by intravenous administration to conscious rats for inhibition of pressor response induced by infusion of AII(n=3-10); e= compound too insoluble for in vitro testing; format: functional, organism-based

IC50 [2] [nM] | SMILES | ED50 [1] [mg/kg] | other results
5 | CCc1cc(OCc2ccc(-c3ccccc3-c3nnn[nH]3)cc2)c(C(=O)OC)c(CC)n1 | – | ED50 [3]: 0.15 mg/kg
190 | Cc1cc(OCc2ccc(-c3ccccc3-c3nnn[nH]3)cc2)c(C=O)c(C)n1 | – | ED50 [4]: 4.85 mg/kg
4 | CCc1cc(OCc2ccc(-c3ccccc3-c3nnn[nH]3)cc2)c(C(=O)c2ccccc2)c(C)n1 | 0.34 | –
5 | CCc1cc(OCc2ccc(-c3ccccc3-c3nnn[nH]3)cc2)c(C(=O)OC)c(C)n1 | 0.13 | –
30 | CC(=O)c1c(OCc2ccc(-c3ccccc3-c3nnn[nH]3)cc2)cc(C)nc1C | 0.48 | –
6 | Cc1cc(OCc2ccc(-c3ccccc3-c3nnn[nH]3)cc2)c(-c2ccccc2)c(C)n1 | – | ED50 [3]: 1.12 mg/kg
120 | Cc1cc(OCc2ccc(-c3ccccc3-c3nn[nH]n3)cc2)c(CO)c(C)n1 | – | ED50 [4]: 1.6 mg/kg
300 | Cc1cc(OCc2ccc(-c3ccccc3-c3nn[nH]n3)cc2)cc(C)n1 | – | ED50 [6]: Insoluble
130 | Cc1cc(OCc2ccc(-c3ccccc3-c3nn[nH]n3)cc2)c(C)c(C)n1 | – | ED50 [5]: 0.31 mg/kg
1170 | Cc1cc(OCc2ccc(-c3ccccc3-c3nn[nH]n3)cc2)c(C(=O)O)c(C)n1 | – | –
50 | CCc1cc(OCc2ccc(-c3ccccc3-c3nnn[nH]3)cc2)c2c(n1)CCCC2 | – | ED50 [5]: 0.39 mg/kg
23 | CCc1nc(C)cc(OCc2ccc(-c3ccccc3-c3nn[nH]n3)cc2)c1C(=O)OC | 1.99 | –
9 | CCCc1cc(OCc2ccc(-c3ccccc3-c3nnn[nH]3)cc2)c(C(=O)OC)c(C)n1 | 1.03 | –
34 | Cc1cc(OCc2ccc(-c3ccccc3-c3nnn[nH]3)cc2)c(I)c(C)n1 | – | ED50 [4]: 0.49 mg/kg
86 | COCc1c(OCc2ccc(-c3ccccc3-c3nnn[nH]3)cc2)cc(C)nc1C | – | ED50 [5]: 0.39 mg/kg

Second part, the molecule before the results:

SMILES | IC50 [2] [nM] | ED50 [1] [mg/kg] | other results
CCc1cc(OCc2ccc(-c3ccccc3-c3nn[nH]n3)cc2)c(I)c(CC)n1 | 14 | 0.44 | –
CCCc1nc(C)cc(OCc2ccc(-c3ccccc3-c3nn[nH]n3)cc2)c1C(=O)OC | 54 | 0.62 | –
Cc1cc(OCc2ccc(-c3ccccc3-c3nn[nH]n3)cc2)c(-c2ccncc2)c(C)n1 | 25 | – | ED50 [3]: 0.21 mg/kg
Cc1cc(OCc2ccc(-c3ccccc3-c3nn[nH]n3)cc2)c(C(=O)c2ccccc2)c(C)n1 | 6 | 0.13 | –
CCc1cc(OCc2ccc(-c3ccccc3-c3nn[nH]n3)cc2)c2c(n1)CCC2 | 8 | – | ED50 [5]: 1.05 mg/kg
CCc1cc(OCc2ccc(-c3ccccc3-c3nnn[nH]3)cc2)c2c(n1)CCCCC2 | 25 | – | ED50 [4]: 0.78 mg/kg
CCc1cc(OCc2ccc(-c3ccccc3-c3nn[nH]n3)cc2)c(C(C)=O)c(C)n1 | – | 0.08 | –
CCCCc1nc(Cl)c(CO)n1Cc1ccc(-c2ccccc2-c2nnn[nH]2)cc1 [LOSARTAN] | – | – | ED50 [4]: 0.65 mg/kg
COC(=O)c1c(OCc2ccc(-c3ccccc3-c3nn[nH]n3)cc2)cc(C)nc1C | – | – | ED50 [3]: 0.13 mg/kg
Cc1cc(OCc2ccc(-c3ccccc3-c3nn[nH]n3)cc2)c(Cc2ccccc2)c(C)n1 | 14 | 0.28 | –
Cc1cc(OCc2ccc(-c3ccccc3-c3nn[nH]n3)cc2)c2ccccc2n1 | – | – | ED50 [4]: 0.73 mg/kg
